Laboratory results as given in US6921821B2, “Antagonists of melanin concentrating hormone receptor” (Abbott Laboratories, priority 2002, dated 2005).
Where a name gives a salt, the structure may show the parent alone.

Molecular target: T1, murine MCHR (Mus musculus, UniProt Q8JZL2)
T1 construct: expressed in transfected cells; host or cells: HEK293
Test: Assay for release of intracellular calcium (FLIPR, Fluo-4), inhibition of MCH-induced Ca++ flux
Type: cell-based
Details: test compound at a dose of 10 μM, HEK293 cells expressing the murine MCHR, read-out: inhibition of MCH (MCH induced Ca++ flux / fluorescence)
Method: Assay for Release of Intracellular Calcium
Activation of the melanin concentrating hormone receptor (MCHR) by MCH induces the release of Ca^++ from intracellular stores. This intracellular calcium release is measured using a fluorometric imaging plate reader (FLIPR™, Molecular Devices Corp.) in conjunction with the Ca^++-sensitive dye Fluo-4. Release of Ca^++ from intracellular stores causes an increase in fluorescence of the dye that is proportional to Ca^++ concentration. Briefly, the assays are performed as follows. HEK293 cells expressing the murine MCHR are plated overnight at 50,000 cells/well in 96-well plates. The following day, culture medium is removed and replaced with 100 μl/well of D-PBS (+glucose and sodium pyruvate) containing 2.5 μM Fluo-4AM (Molecular Probes), 0.01% Pluronic F-127 and 2.5 mM probenecid. Cells are loaded with the Fluo-4 dye for at least one hour at room temp. After loading, the cells are washed gently to remove extracellular dye and 100 μl of D-PBS (+glucose and sodium pyruvate) is added to each well. Test compounds are prepared at 40 μM in 4% DMSO. The cell plate is placed in the FLIPR™ and 50 μl/well of test compound is delivered. The calcium signal is followed for 3 minutes to assay for potential agonist activity by the test compounds. Then 50 μl/well of 12 nM mouse MCH (in D-PBS containing 0.1% BSA) is added and the ligand-induced calcium signal is followed for an additional 3 minutes. Antagonist activity as determined by the test compounds ability to inhibit MCH induced Ca^++ flux is calculated as % inhibition as described by the following formula: % inhibition=[1−((fTC−fB)÷(fMCH−fB))]×100, where fTC=MCH-induced fluorescence in the presence of test compound; fMCH=MCH-induced fluorescence in the absence of test compound; and fB=Baseline fluorescence.
MCH (3 nM) usually elicits a response of 30,000-40,000 relative fluorescence units (RFU) with a baseline of about 1000 RFU. Fluo-4 fluorescence is measured at 488 nm, with an exposure of 0.40 sec. and F-stop=2.0 and the laser set at 0.40-0.60 W constant light output.

T1 sequence (Q8JZL2 whole entry): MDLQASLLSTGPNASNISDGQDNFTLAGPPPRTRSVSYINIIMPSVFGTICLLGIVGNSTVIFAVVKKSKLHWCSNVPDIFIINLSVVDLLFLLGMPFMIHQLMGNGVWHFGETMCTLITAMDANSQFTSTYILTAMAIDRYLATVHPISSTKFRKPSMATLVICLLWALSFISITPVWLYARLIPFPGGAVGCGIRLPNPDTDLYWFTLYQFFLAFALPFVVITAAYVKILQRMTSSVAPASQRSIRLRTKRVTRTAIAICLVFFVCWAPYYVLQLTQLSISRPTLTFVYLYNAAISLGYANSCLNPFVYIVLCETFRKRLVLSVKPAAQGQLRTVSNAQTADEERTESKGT

SMILES	inhibition at 10 µM [%]
COc1ccc2oc(=O)cc(N[C@@H]3CCN(Cc4ccc5c(c4)OCO5)C[C@H]3C)c2c1 (stereo in doubt) [II-72, 4-(1-Benzo[1,3]dioxol-5-ylmethyl-3-methyl-piperidin-4-ylamino)-6-methoxy-chromen-2-one]	≥ 50
N#Cc1c(NC2CCN(Cc3ccc4occc4c3)CC2)c2cc(Cl)ccc2[nH]c1=O [Compound V-23, 4-(1-Benzofuran-5-ylmethyl-piperidin-4-ylamino)-6-chloro-2-oxo-1,2-dihydro-quinoline-3-carbonitrile]	≥ 50
O=c1cc(NC2CCN(Cc3ccc4c(c3)OCO4)CC2)c2cc(Cl)cc(Br)c2o1 [II-41, 4-(1-Benzo[1,3]dioxol-5-ylmethyl-piperidin-4-ylamino)-8-bromo-6-chloro-chromen-2-one]	≥ 50
O=c1cc(NC2CCN(Cc3ccc4ccccc4c3)CC2)c2cc(Cl)ccc2n1Cc1ccncc1 [Compound V-5, 6-Chloro-4-(1-naphthalen-2-ylmethyl-piperidin-4-ylamino)-1-pyridin-4-ylmethyl-1H-quinolin-2-one]	≥ 50
CCc1ccc2c(c1)c(NC1CCN(C(C)c3ccc4c(c3)OCO4)CC1)cc(=O)n2CC (centres unmarked) [Compound V-18, 4-[1-(1-Benzo[1,3]dioxol-5-yl-ethyl)-piperidin-4-ylamino]-1,6-diethyl-1H-quinolin-2-one]	≥ 50
COc1ccc2oc(=O)cc(NC3CCN(Cc4ccc(OCCCN5CCCCC5)c(Cl)c4)CC3)c2c1 [II-115, 4-{1-[3-Chloro-4-(3-piperidin-1-yl-propoxy)-benzyl]-piperidin-4-ylamino}-6-methoxy-chromen-2-one; Double TFA Salt]	≥ 50
N#Cc1c(NC2CCN(Cc3ccc4ccccc4c3)CC2)c2cc(Cl)ccc2[nH]c1=O [Compound V-53, 6-Chloro-4-(1-naphthalen-2-ylmethyl-piperidin-4-ylamino)-2-oxo-1,2-dihydro-quinoline-3-carbonitrile]	≥ 50
O=c1cc(NC2CCN(Cc3ccc4occc4c3)CC2)c2cc(Cl)ccc2n1Cc1ccncc1 [Compound V-10, 4-(1-Benzofuran-5-ylmethyl-piperidin-4-ylamino)-6-chloro-1-pyridin-4-ylmethyl-1H-quinolin-2-one]	≥ 50
Cn1c(=O)c(C(=O)N2CCCC2)c(NC2CCN(Cc3ccc4c(c3)OCO4)CC2)c2cc(Cl)ccc21 [Compound V-59, 4-(1-Benzo[1,3]dioxol-5-ylmethyl-piperidin-4-ylamino)-6-chloro-1-methyl-3-(pyrrolidine-1-carbonyl)-1H-quinolin-2-one]	≥ 50
CON(C)C(=O)c1c(NC2CCN(Cc3ccc4c(c3)OCO4)CC2)c2cc(Cl)ccc2n(C)c1=O [Compound V-52, 4-(1-Benzo[1,3]dioxol-5-ylmethyl-piperidin-4-ylamino)-6-chloro-1-methyl-2-oxo-1,2-dihydro-quinoline-3-carboxylic acid methoxy-methyl-amide]	≥ 50
O=c1cc(NC2CCN(Cc3ccc4ccccc4c3)CC2)c2cc(Cl)ccc2n1Cc1cccnc1 [Compound V-1, 6-Chloro-4-(1-naphthalen-2-ylmethyl-piperidin-4-ylamino)-1-pyridin-3-ylmethyl-1H-quinolin-2-one]	≥ 50
Cc1ccc2c(c1)c(NC1CCN(C/C=C/c3ccccc3)CC1)cc(=O)n2C [Compound V-38, 1,6-Dimethyl-4-[1-(3-phenyl-allyl)-piperidin-4-ylamino]-1H-quinolin-2-one]	≥ 50
CCc1ccc2c(c1)c(NC1CCN(Cc3ccc4c(c3)OCO4)CC1)cc(=O)n2C [Compound V-13, 4-(1-Benzo[1,3]dioxol-5-ylmethyl-piperidin-4-ylamino)-6-ethyl-1-methyl-1H-quinolin-2-one]	≥ 50
O=c1cc(NC2CCN(Cc3ccc4c(c3)OCO4)CC2)c2cc(Cl)ccc2n1Cc1ccccc1 [Compound V-3, 4-(1-Benzo[1,3]dioxol-5-ylmethyl-piperidin-4-ylamino)-1-benzyl-6-chloro-1H-quinolin-2-one]	≥ 50
Cn1c(=O)cc(NC2CCN(Cc3ccc4occc4c3)CC2)c2cc(C(F)(F)F)ccc21 [Compound V-33, 4-(1-Benzofuran-5-ylmethyl-piperidin-4-ylamino)-1-methyl-6-trifluoromethyl-1H-quinolin-2-one]	≥ 50
Cc1cc(C)c2oc(=O)cc(NC3CCN(Cc4ccc5c(c4)OCO5)CC3)c2c1 [II-98, 4-(1-Benzo[1,3]dioxol-5-ylmethyl-piperidin-4-ylamino)-6,8-dimethyl-chromen-2-one]	≥ 50

Second part, the compound after the results:

inhibition at 10 µM [%]	SMILES
≥ 50	CC(=O)c1ccc(C(C)N2CCC(Nc3cc(=O)oc4ccc(Cl)cc34)CC2)cc1 (racemic) [II-116, 4-{1-[1-(4-acetylphenyl)-ethyl]-piperidin-4-ylamino}-6-chlorochromen-2-one]
≥ 50	COc1ccc2oc(=O)cc(NC3CCN(Cc4cc5ccccc5n4C)CC3)c2c1 [II-84, 6-Methoxy-4-[1-(1-methyl-1H-indol-2-ylmethyl)-piperidin-4-ylamino]-chromen-2-one, trifluoroacetate]
≥ 50	COc1ccc2oc(=O)cc(NC3CCN(Cc4cccc5ccccc45)CC3)c2c1 [II-66, 6-Methoxy-4-(1-naphthalen-1-ylmethyl-piperidin-4-ylamino)-chromen-2-one trifluoroacetate]
≥ 50	CCOc1cccc(CN2CCC(Nc3cc(=O)oc4ccc(OC)cc34)CC2)c1 [II-97, 4-[1-(3-Ethoxy-benzyl)-piperidin-4-ylamino]-6-methoxy-chromen-2-one trifluoroacetate]
≥ 50	CCc1ccc2oc(=O)cc(NC3CCN(Cc4ccc5c(c4)OCO5)CC3)c2c1 [II-63, 4-(1-Benzo{1,3}dioxol-5-ylmethyl-piperidin-4-ylamino)-6-ethyl-chromen-2-one]
≥ 50	Cn1c(=O)cc(NC2CCN(C/C=C/c3ccccc3)CC2)c2cc(Cl)ccc21 [Compound V-29, 6-Chloro-1-methyl-4-[1-(3-phenyl-allyl)-piperidin-4-ylamino]-1H-quinolin-2-one]
≥ 50	COc1ccc2oc(=O)cc(NC3CCN(Cc4ccc(C(=O)NCCc5ccccn5)cc4)CC3)c2c1 [II-83, 4-[4-(6-Methoxy-2-oxo-2H-chromen-4-ylamino)-piperidin-1-ylmethyl]-N-(2-pyridin-2-yl-ethyl)-benzamide; Double TFA Salt]
≥ 50	O=c1cc(NC2CCN(Cc3ccc4cc[nH]c4c3)CC2)c2cc(Cl)ccc2o1 [II-31, 6-Chloro-4-[1-(1H-indol-6-ylmethyl)-piperidin-4-ylamino]-chromen-2-one]
≥ 50	O=C(NCCN1CCCC1)c1ccc(CN2CCC(Nc3cc(=O)oc4ccc(Cl)cc34)CC2)cc1 [II-55, 4-[4-(6-Chloro-2-oxo-2H-chromen-4-ylamino)-piperidin-1-ylmethyl]-N-(2-pyrrolidin-1-yl-ethyl)-benzamide; Double TFA Salt]
≥ 50	C[C@@H](c1ccc2ccccc2c1)N1CCC(Nc2cc(=O)oc3ccc(Cl)cc23)CC1 [II-120, (S)-6-Chloro-4-[1-(1-naphthalen-2-yl-ethyl)-piperdin-4-ylamino]-chromen-2-one]
≥ 50	COc1ccc2oc(=O)cc(NC3CCN(Cc4ccc(C)cc4)CC3)c2c1 [II-34, 6-Methoxy-4-[1-(4-methyl-benzyl)-piperidin-4-ylamino]-chromen-2-one trifluoroacetate]
≥ 50	O=C(NCCN1CCCCC1)c1ccc(CN2CCC(Nc3cc(=O)oc4ccc(Cl)cc34)CC2)cc1 [II-67, 4-[4-(6-Chloro-2-oxo-2H-chromen-4-ylamino)-piperidin-1-ylmethyl]-N-(2-piperidin-1-yl-ethyl)-benzamide; Double TFA Salt]
≥ 50	COc1ccc2oc(=O)cc(NC3CCN(Cc4ccc(OCCCN(C)C)cc4)CC3)c2c1 [II-91]
≥ 50	O=c1cc(NC2CCN(Cc3csc4ccccc34)CC2)c2cc(Cl)ccc2o1 [II-6, 4-(1-Benzo[b]thiophen-3-ylmethyl-piperidin-4-ylamino)-6-chloro-chromen-2-one]
≥ 50	COc1cccc(CN2CCC(Nc3cc(=O)oc4ccc(OC)cc34)CC2)c1 [II-76, 6-Methoxy-4-[1-(3-methoxy-benzyl)-piperidin-4-ylamino]-chromen-2-one trifluoroacetate]
≥ 50	CCc1ccc2oc(=O)cc(NC3CCN(Cc4ccc(C)c(C)c4)CC3)c2c1 [II-103, 4-{1-(3,4-Dimethyl-benzyl)-piperidin-4-ylamino}-6-ethyl-chromen-2-one]
